# Read-outs that look alike come from different tables or passages of the source.
# Assays:
# [1] = system: TGFβ-induced SBE4-luc reporter activity in HEK293T cells; test: SBE luciferase reporter assay; type: cell-based, Human; conditions: 5 μM compound, TGFβ 10 ng/ml, 18 h
# Description: SMAD3/SMAD4 complex transcriptional activity was measured using the SBE-luciferase reporter system. HEK293T cells were used to measure the luciferase activity. Cells were plated in 6-well plates and co-transfected with SBE4-Luc plasmid (1 μg, Addgene, 16495) and pDEST26-Renilla plasmid (0.1 μg) using FuGENE® HD (Promega, #E2312). After 24 h of transfection, the cells were pre-treated with GA (MedChemExpress, #HY-N0087) or GNA (MedChemExpress, #HY-5024) at 5 μM for 6 h followed by TGFβ (10 ng/ml, R&D Systems, #240-B) stimulation for an additional 18 h. Renilla and firefly luciferase activities were measured by an Envision Multilabel plate reader (PerkinElmer) using a Dual-Glo luciferase kit (Promega, Cat# E2920) according to the manufacturer's instructions. The normalized luminescence was calculated as the ratio of the luminescence of firefly luciferase over the luminescence of Renilla luciferase.
# [2] = system: TGFβ-induced migration of A549 cells; test: Wound-healing assay; type: cell-based; conditions: 5 μM compound, TGFβ 10 ng/ml, A549 NucLight Red
# Description: Briefly, A549 NucLight Red cells were seeded in 96-well plates (Greiner, Cat# 655087) at 40000 cells/well in RPMI 1640 media supplemented with 10% FBS and 1% antibiotics. After 24 h, a wound scratch was created in the confluent cell monolayer using a 96-well woundmaker (Sartorius), followed by washing three times with PBS. Then, the medium was replaced with RPMI 1640 medium without FBS. TGFβ (10 ng/ml), GA (5 μM), or GNA (5 μM) was added at the indicated concentrations. After 24 h of treatment, the plates were imaged using the ImageXpress Micro High-Content Imaging System (Molecular Device). The wound-healing activity was quantified by measuring the width (W) of the wound using ImageJ and expressed as […] × 100.
# [3] = target: T1, SMAD4–SMAD3 MH2 domain PPI (Homo sapiens, UniProt P84022+Q13485); test: GST pull-down assay, SMAD4–SMAD3 MH2 domains; type: binding
# T1 construct: GST-SMAD4-MH2 and VF-SMAD3-MH2 (C and D); expressed in transfected cells; host or cells: HEK293T (lysate)
# Description: (§1) To validate the hits from the pilot screening, we performed the orthogonal GST pull-down assay using cell lysates from HEK293T cells transfected with Venus-flag-SMAD3 and GST-SMAD4 or Venus-flag-SMAD3-MH2 and GST-SMAD4-MH2. After 48 h of transfection, the cells were lysed in 1% NP-40 lysis buffer, incubated with compounds for 16 h with rotation at 4°C, and then incubated with glutathione-conjugated beads (GE 17527901) for 2 h at 4°C. Beads were washed twice with 1% NP-40 lysis buffer, eluted by boiling in sodium dodecyl sulfate (SDS) sample buffer (Bio-Rad), and subjected to western blot analysis. Proteins in SDS sample buffer were resolved by 10% SDS polyacrylamide gel electrophoresis and transferred to nitrocellulose filter membranes at 100 V for 2 h at 4°C. After blocking in 5% nonfat dry milk in TBST (20 mM Tris-base, 150 mM NaCl, and 0.05% Tween 20) for 1 h at room temperature, the membranes were blotted with the indicated antibodies, mouse monoclonal anti-FLAG-HRP antibody (Sigma‒Aldrich, # A8592) and rabbit polyclonal anti-GST-HRP antibody (Sigma‒Aldrich, Cat# A7340), at 4°C overnight. The membranes were washed three times with 1× TBST for 15 min. […] Luminescence images were captured using the ChemiDoc^TM Touch Imaging System (Bio-Rad).
# [4] = target: T2, SMAD–SBE4 PDI (SMAD4–SMAD3–DNA complex) (Homo sapiens, UniProt P84022+Q13485); test: Multiplexed TR-FRET assay, Tb–FAM PDI readout (cell lysate-based); type: binding; conditions: for inhibition of PDI signal compared to DMSO control, primary screen: 1536-well uHTS, 20 μM, single point
# T2 construct: expressed in transfected cells; host or cells: HEK293T (transient co-transfection, lysate used)
# [5] = target: T3, full-length SMAD4–SMAD3 PPI (Homo sapiens, UniProt P84022+Q13485); test: GST pull-down assay, full-length SMAD4–SMAD3; type: binding
# T3 construct: expressed in transfected cells; host or cells: HEK293T (lysate)
# Description: as §1
# SMAD4–SMAD3 PPI = target: T4, SMAD4–SMAD3 PPI (Homo sapiens, UniProt P84022+Q13485); test: Multiplexed TR-FRET assay, Tb–D2 PPI readout (cell lysate-based); type: binding; conditions: for inhibition of PPI signal compared to DMSO control, primary screen: 1536-well uHTS, 20 μM, single point
# T4 construct: expressed in transfected cells; host or cells: HEK293T (transient co-transfection, lysate used)
# T4 sequence (Q13485 whole entry): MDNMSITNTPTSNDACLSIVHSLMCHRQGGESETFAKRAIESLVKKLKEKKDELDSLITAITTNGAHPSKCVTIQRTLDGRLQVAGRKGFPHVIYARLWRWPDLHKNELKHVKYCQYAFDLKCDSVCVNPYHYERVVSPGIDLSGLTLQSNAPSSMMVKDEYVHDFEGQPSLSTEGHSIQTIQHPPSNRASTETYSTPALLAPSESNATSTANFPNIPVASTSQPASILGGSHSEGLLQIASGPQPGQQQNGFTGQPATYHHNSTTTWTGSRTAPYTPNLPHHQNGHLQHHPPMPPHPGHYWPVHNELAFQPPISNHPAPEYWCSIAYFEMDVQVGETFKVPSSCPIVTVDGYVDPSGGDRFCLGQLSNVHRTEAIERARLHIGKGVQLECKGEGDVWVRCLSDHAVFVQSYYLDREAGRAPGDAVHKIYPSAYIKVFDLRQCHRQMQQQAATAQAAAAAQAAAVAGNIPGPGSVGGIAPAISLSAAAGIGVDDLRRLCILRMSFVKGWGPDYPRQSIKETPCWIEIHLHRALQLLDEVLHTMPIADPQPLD
# T4 sequence (P84022 whole entry): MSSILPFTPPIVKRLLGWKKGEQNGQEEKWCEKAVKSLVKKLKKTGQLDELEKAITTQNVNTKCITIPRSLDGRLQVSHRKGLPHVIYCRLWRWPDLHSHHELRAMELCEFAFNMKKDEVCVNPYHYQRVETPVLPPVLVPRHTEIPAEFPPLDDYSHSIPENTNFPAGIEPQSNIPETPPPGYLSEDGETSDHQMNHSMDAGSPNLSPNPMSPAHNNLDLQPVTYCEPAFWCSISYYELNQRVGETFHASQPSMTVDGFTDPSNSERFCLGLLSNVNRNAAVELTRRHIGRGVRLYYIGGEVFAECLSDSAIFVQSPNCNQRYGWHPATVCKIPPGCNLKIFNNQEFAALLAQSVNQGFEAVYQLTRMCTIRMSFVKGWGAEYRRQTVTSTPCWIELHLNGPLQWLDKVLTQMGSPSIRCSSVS
# T2 sequence (Q13485 whole entry): as the sequence (Q13485 whole entry) above
# T2 sequence (P84022 whole entry): as the sequence (P84022 whole entry) above
# T1 sequence (Q13485 323-552): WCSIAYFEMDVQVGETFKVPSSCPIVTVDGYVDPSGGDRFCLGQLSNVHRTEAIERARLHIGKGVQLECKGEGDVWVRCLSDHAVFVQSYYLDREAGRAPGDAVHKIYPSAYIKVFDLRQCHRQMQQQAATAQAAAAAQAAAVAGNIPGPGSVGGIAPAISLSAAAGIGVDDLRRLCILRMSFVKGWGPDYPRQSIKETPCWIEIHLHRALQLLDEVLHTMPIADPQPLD
# T1 sequence (P84022 232-425): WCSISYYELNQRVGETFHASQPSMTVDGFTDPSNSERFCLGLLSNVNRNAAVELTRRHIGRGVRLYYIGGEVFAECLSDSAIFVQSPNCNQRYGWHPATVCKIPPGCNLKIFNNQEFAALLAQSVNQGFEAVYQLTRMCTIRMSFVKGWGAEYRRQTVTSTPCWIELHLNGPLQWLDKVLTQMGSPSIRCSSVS
# T3 sequence (Q13485 whole entry): as the sequence (Q13485 whole entry) above
# T3 sequence (P84022 whole entry): as the sequence (P84022 whole entry) above
SMILES,TGFβ-induced SBE4-luc activity [1],TGFβ-induced A549 cell migration (wound healing) [2],"IC50 ([3]; GST-SMAD4-MH2 and VF-SMAD3-MH2 lysates, densitometry of western blots, read-out: IC50, inhibition of the PPI of SMAD4–SMAD3 MH2 domains)","inhibition of PDI signal compared to DMSO control, primary screen [4]","IC50 ([4]; TR-FRET dose–response confirmation with re-ordered compounds, 5′-FAM-SBE4 dsDNA, read-out: IC50, decrease in the PDI signal)","IC50 ([5]; GST-SMAD4 and VF-SMAD3 lysates, densitometry of western blots, read-out: IC50, decrease of SMAD3 protein in the pull-down GST-SMAD4 complex)","inhibition of PPI signal compared to DMSO control, primary screen (SMAD4–SMAD3 PPI)","IC50 (SMAD4–SMAD3 PPI; TR-FRET dose–response confirmation with re-ordered compounds, lysate co-expressing His-SMAD4 and Flag-SMAD3, read-out: IC50, decrease in the PPI signal)",IC50 [3],IC50 [4],IC50 [5],IC50 (SMAD4–SMAD3 PPI)
"CC(C)=CCC[C@]1(C)C=Cc2c(O)c3c(c(CC=C(C)C)c2O1)O[C@]12C(=C[C@@H]4C[C@H]1C(C)(C)O[C@@]2(C/C=C(/C)C(=O)O)C4=O)C3=O [GA, gambogic acid]",significant reduction,significantly reduced,~11.4 µM,robust inhibitory effects,36 ± 9.4 µM,~11.4 µM,robust inhibitory effects,4.3 ± 0.5 µM,–,–,–,–
"CC(C)=CCC/C(C)=C/Cc1c(O)c(CC=C(C)C)c2c(c1O)C(=O)C1=C[C@@H]3C[C@H]4C(C)(C)O[C@@](C/C=C(/C)C(=O)O)(C3=O)[C@@]14O2 [GNA, gambogenic acid]",significant reduction,significantly reduced,–,robust inhibitory effects,–,–,robust inhibitory effects,–,~9 µM,27.6 ± 4.8 µM,~8.9 µM,6.4 ± 1.6 µM
